Measurements reported in patent publication US11919902B2, “Aryl-bipyridine amine derivatives as phosphatidylinositol phosphate kinase inhibitors” (HiberCell, Inc., priority 2017, dated 2024).

Tests used:
[1] = molecular target: T1, GST tagged PIP4KtypeIIB (Homo sapiens, UniProt P78356); experiment: Trans-FI P kinase assay PIP4K2B (PIP4KtypeIIB inhibition assay); format: biochemical; conditions: Table 4; compounds listed under IC50 range headings; 100 uM GTP, 5 nM PIP4KIIB; read-out: Trans-FI P kinase assays: PIP4K2B IC50
T1 construct: made in house; host or cells: E. coli
T1 sequence (P78356 1-416): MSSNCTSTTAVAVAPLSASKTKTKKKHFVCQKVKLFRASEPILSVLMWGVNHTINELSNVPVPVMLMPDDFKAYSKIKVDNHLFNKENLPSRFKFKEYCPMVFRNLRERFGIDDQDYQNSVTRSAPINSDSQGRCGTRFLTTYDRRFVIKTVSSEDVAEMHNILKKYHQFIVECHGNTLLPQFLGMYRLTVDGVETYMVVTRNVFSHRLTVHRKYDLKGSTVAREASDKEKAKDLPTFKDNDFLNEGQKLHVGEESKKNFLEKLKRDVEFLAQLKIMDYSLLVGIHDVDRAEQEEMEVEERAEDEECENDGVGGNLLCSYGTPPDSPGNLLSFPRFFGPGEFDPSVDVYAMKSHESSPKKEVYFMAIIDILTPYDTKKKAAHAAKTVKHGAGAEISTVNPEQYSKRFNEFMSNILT
How it was run: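 Purified GST-PIP4KIIB (5 nM final), 1 h preincubation with compound at 27 C, then 2 h reaction with 100 uM GTP and 80 uM PI5P plus DOPE carrier lipid in pH 7.3 HEPES/MgCl2/Triton buffer with 5% DMSO. GDP read by Transcreener FI fluorescence against a calibration curve; IC50 from % no-inhibitor activity vs log concentration.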

[2] = molecular target: T2, PIP4K2A (full length protein, SignalChem) (Homo sapiens, UniProt P48426); experiment: Kinase Assay PIP4K2 A (Sprint); ADP-Glo biochemical assay; conditions: Table 2; compounds listed under IC50 range headings
T2 construct: 4 nM PIP4K2A (full length protein, SignalChem); purchased SignalChem
T2 sequence (P48426 1-406): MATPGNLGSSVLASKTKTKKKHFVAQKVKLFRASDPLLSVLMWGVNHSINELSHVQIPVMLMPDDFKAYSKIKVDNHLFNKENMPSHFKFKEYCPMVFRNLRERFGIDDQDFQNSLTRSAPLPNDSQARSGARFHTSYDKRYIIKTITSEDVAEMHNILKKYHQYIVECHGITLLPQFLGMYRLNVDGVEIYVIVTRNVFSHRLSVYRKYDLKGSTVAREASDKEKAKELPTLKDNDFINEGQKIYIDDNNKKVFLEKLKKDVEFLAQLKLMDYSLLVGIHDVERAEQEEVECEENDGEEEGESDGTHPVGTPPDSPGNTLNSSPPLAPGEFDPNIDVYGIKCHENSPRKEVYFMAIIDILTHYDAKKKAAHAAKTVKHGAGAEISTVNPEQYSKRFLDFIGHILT
How it was run: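 Compounds (10-point, 3-fold dilutions) were pre-incubated 15 min at RT with an enzyme/substrate mix of 4 nM full-length PIP4K2A and 100 μM PI(5)P diC8 in 20 mM MOPS pH 7.2, 25 mM MgCl2, 0.005% Tween 20. A 60 μM ATP solution was added, reaction 1 h RT; ADP read by ADP-Glo luminescence, IC50 fitted from % inhibition vs DMSO.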

[3] = molecular target: T3, GST tagged PIP4KtypeIIA (Homo sapiens, UniProt P48426); experiment: ADP-glo kinase assay PIP4K 2A (PIP4KtypeIIA inhibition assay); format: biochemical; conditions: Table 3; compounds listed under IC50 range headings; 10 uM ATP, 0.5 nM PIP4KIIA
T3 construct: made in house; host or cells: E. coli
T3 sequence (P48426 1-406): T2 sequence (P48426 1-406)
How it was run: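 E. coli-expressed GST-PIP4KtypeIIA (0.5 nM final) was preincubated 1 h at 27 °C with compound (up to 4.8 μM, 5% DMSO) in PI5P/DOPE lipid in 50 mM HEPES pH 7.3 with 10 mM MgCl2. The reaction was started with 10 μM ATP (final) and run 1 h. ADP was read by ADP-Glo luminescence via a calibration curve, and IC50 was taken from % residual activity.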

IC50 [1] [nM]	IC50 [2] [nM]	IC50 [3] [nM]	Compound
> 5000	< 5000	> 5000	CN(C)C(=O)c1ccc(-c2cncc(-c3ccncc3)c2)cc1 [Example 1, 4-([3,4′-bipyridin]-5-yl)-N,N-dimethylbenzamide]
100 to 1000	100 to 1000	100 to 1000	CN(C)C(=O)c1ccc(-c2cncc(-c3ccnc4[nH]ccc34)c2)cc1 [Example 2, 4-(5-(1H-pyrrolo[2,3-b]pyridin-4-yl)pyridin-3-yl)-N,N-dimethylbenzamide]
2500 to 5000	100 to 1000	2500 to 5000	CN(C)C(=O)c1ccc(-c2cncc(-c3cnc4[nH]ccc4c3)c2)cc1 [Example 4, 4-(5-(1H-pyrrolo[2,3-b]pyridin-5-yl)pyridin-3-yl)-N,N-dimethylbenzamide]
1000 to 2500	100 to 1000	2500 to 5000	CN(C)C(=O)c1ccc(-c2cncc(-c3ccnc4c3ccn4C)c2)cc1 [Example 5, N,N-dimethyl-4-(5-(1-methyl-1H-pyrrolo[2,3-b]pyridin-4-yl)pyridin-3-yl)benzamide]
> 5000	1000 to 2500	> 5000	CN(C)C(=O)c1ccc(-c2cncc(-c3cnc4c(ccn4C)c3)c2)cc1 [Example 6, N,N-dimethyl-4-(5-(1-methyl-1H-pyrrolo[2,3-b]pyridin-5-yl)pyridin-3-yl)benzamide]
> 5000	2500 to 5000	> 5000	CN(C)C(=O)c1ccc(-c2cncc(-c3ccnc4ccncc34)c2)cc1 [Example 7, 4-(5-(1,6-naphthyridin-4-yl)pyridin-3-yl)-N,N-dimethylbenzamide]
> 5000	< 5000	> 5000	CN(C)C(=O)c1ccc(-c2cncc(-c3ccnc(C(=O)N(C)C)c3)c2)cc1 [Example 9, 5-(4-(dimethylcarbamoyl)phenyl)-N,N-dimethyl-[3,4′-bipyridine]-2′-carboxamide]
100 to 1000	100 to 1000	100 to 1000	CN(C)C(=O)c1ccc(-c2cncc(-c3c[nH]c4ncccc34)c2)cc1 [Example 10, 4-(5-(1H-pyrrolo[2,3-b]pyridin-3-yl)pyridin-3-yl)-N,N-dimethylbenzamide]
100 to 1000	100 to 1000	100 to 1000	Cc1[nH]c2ncccc2c1-c1cncc(-c2ccc(C(=O)N(C)C)cc2)c1 [Example 11, N,N-dimethyl-4-(5-(2-methyl-1H-pyrrolo[2,3-b]pyridin-3-yl)pyridin-3-yl)benzamide]
100 to 1000	5 to 100	100 to 1000	CN(C)C(=O)c1ccc(-c2cncc(-c3c[nH]c4ncc(Cl)cc34)c2)cc1 [Example 12, 4-(5-(5-chloro-1H-pyrrolo[2,3-b]pyridin-3-yl)pyridin-3-yl)-N,N-dimethylbenzamide]
1000 to 2500	1000 to 2500	2500 to 5000	CNC(=O)c1cc2c(-c3cncc(-c4ccc(C(=O)N(C)C)cc4)c3)ccnc2n1C [Example 13, 4-(5-(4-(dimethylcarbamoyl)phenyl)pyridin-3-yl)-N,1-dimethyl-1H-pyrrolo[2,3-b]pyridine-2-carboxamide]
100 to 1000	100 to 1000	100 to 1000	CNC(=O)c1cc2c(-c3cncc(-c4ccc(C(=O)N(C)C)cc4)c3)ccnc2o1 [Example 14, 4-(5-(4-(dimethylcarbamoyl)phenyl)pyridin-3-yl)-N-methylfuro[2,3-b]pyridine-2-carboxamide]
100 to 1000	5 to 100	100 to 1000	CC(O)c1cnc2[nH]cc(-c3cncc(-c4ccc(C(=O)N(C)C)cc4)c3)c2c1 (centres unmarked) [Example 15, 4-(5-(5-(1-hydroxyethyl)-1H-pyrrolo[2,3-b]pyridin-3-yl)pyridin-3-yl)-N,N-dimethylbenzamide]
100 to 1000	100 to 1000	1000 to 2500	CN(C)C(=O)c1ccc(-c2cc(-c3ccnc4ccccc34)cnc2N)nc1 [Example 20, 2′-amino-N,N-dimethyl-5′-(quinolin-4-yl)-[2,3′-bipyridine]-5-carboxamide]
100 to 1000	100 to 1000	100 to 1000	CN(C)C(=O)c1ccc(-c2cc(-c3ccnc4[nH]ccc34)cnc2N)nc1 [Example 21, 2′-amino-N,N-dimethyl-5′-(1H-pyrrolo[2,3-b]pyridin-4-yl)-[2,3′-bipyridine]-5-carboxamide]
> 5000	< 5000	> 5000	Nc1ncc(Br)cc1-c1ccc(N2CCCC2=O)cn1 [Example 22, 1-(2′-amino-5′-bromo-[2,3′-bipyridin]-5-yl)pyrrolidin-2-one]
–	< 5000	1000 to 2500	Cc1cc(N2CCCC2=O)ccc1-c1cncc(-c2ccncc2)c1 [Example 81, 1-(4-([3,4′-bipyridin]-5-yl)-3-methylphenyl)pyrrolidin-2-one]
–	1000 to 2500	> 5000	COCc1c(-c2ccncc2)cncc1-c1ccc(N2CCCC2=O)cc1 [Example 83, 1-(4-(4-(methoxymethyl)-[3,4′-bipyridin]-5-yl)phenyl)pyrrolidin-2-one]
–	< 5000	> 5000	COC(=O)c1c[nH]c2nccc(-c3cnc(N)c(-c4ccc(C(=O)N(C)C)cn4)c3)c12 [Example 114, methyl 4-(2′-amino-5-(dimethylcarbamoyl)-[2,3′-bipyridin]-5′-yl)-1H-pyrrolo[2,3-b]pyridine-3-carboxylate]
–	< 5000	10 to 100	Cn1cc(-c2cncc(-c3ccc(N4CCCC4=O)cc3)c2)c2cncnc21 [Example 153, 1-(4-(5-(7-methyl-7H-pyrrolo[2,3-d]pyrimidin-5-yl)pyridin-3-yl)phenyl)pyrrolidin-2-one]
100 to 1000	–	100 to 1000	COC(=O)c1cc2c(-c3cncc(-c4ccc(N5CCCC5=O)cc4)c3)c(Cl)cnc2[nH]1 [Example 296, methyl 5-chloro-4-(5-(4-(2-oxopyrrolidin-1-yl)phenyl)pyridin-3-yl)-1H-pyrrolo[2,3-b]pyridine-2-carboxylate]
> 5000	–	1000 to 2500	O=C(N[C@H]1C[C@H](c2ccccc2)C1)c1cc2c(-c3cncc(-c4ccc(N5CCCC5=O)cc4)c3)ccnc2[nH]1 [Example 297, 4-(5-(4-(2-oxopyrrolidin-1-yl)phenyl)pyridin-3-yl)-N-((1r,3r)-3-phenylcyclobutyl)-1H-pyrrolo[2,3-b]pyridine-2-carboxamide]
10 to 100	–	100 to 1000	O=C(NCCc1cncs1)c1cc2c(-c3cncc(-c4ccc(N5CCCC5=O)cc4)c3)ccnc2[nH]1 [Example 298, 4-(5-(4-(2-oxopyrrolidin-1-yl)phenyl)pyridin-3-yl)-N-(2-(thiazol-5-yl)ethyl)-1H-pyrrolo[2,3-b]pyridine-2-carboxamide]
10 to 100	–	10 to 100	CC(O)c1cnc2c(c1)c(-c1cncc(-c3ccc(N4CCCC4=O)cc3)c1)c1n2CCC1 (centres unmarked) [Example 351, 1-(4-(5-(3-(1-hydroxyethyl)-7,8-dihydro-6H-pyrido[3,2-b]pyrrolizin-5-yl)pyridin-3-yl)phenyl)pyrrolidin-2-one]
10 to 100	–	10 to 100	O=C1CCCN1c1ccc(-c2cncc(-c3c4n(c5ncncc35)CCC4)c2)cc1 [Example 352, 1-(4-(5-(7,8-dihydro-6H-pyrimido[5,4-b]pyrrolizin-5-yl)pyridin-3-yl)phenyl)pyrrolidin-2-one]
10 to 100	–	10 to 100	O=C1CCCN1c1ccc(-c2cncc(-c3c4n(c5ncc(Br)cc35)CCC4)c2)cc1 [Example 353, 1-(4-(5-(3-bromo-7,8-dihydro-6H-pyrido[3,2-b]pyrrolizin-5-yl)pyridin-3-yl)phenyl)pyrrolidin-2-one]
